Measured values: ChEMBL document CHEMBL3525920, “CYP4F enzymes are responsible for the elimination of fingolimod (FTY720), a novel treatment of relapsing multiple sclerosis” (Drug Metab Dispos, 2011)

Legend:
Cytochrome P450 2A6 [1] = target: T1, Cytochrome P450 2A6 (Homo sapiens, UniProt P11509); assay: Activity at CYP2A6 in human liver microsomes isolated from donors assessed as metabolite formation after 24 mins by HPLC-RA analysis; format: ADME; conditions: 0.4 h
Cytochrome P450 2B6 [2] = target: T2, Cytochrome P450 2B6 (Homo sapiens, UniProt P20813); assay: Activity at CYP2B6 in human liver microsomes isolated from donors assessed as metabolite formation after 24 mins by HPLC-RA analysis; format: ADME; conditions: 0.4 h
Cytochrome P450 2C19 [3] = target: T3, Cytochrome P450 2C19 (Homo sapiens, UniProt P33261); assay: Activity at CYP2C19 in human liver microsomes isolated from donors assessed as metabolite formation after 24 mins by HPLC-RA analysis; format: ADME; conditions: 0.4 h
[4] = Retention time of the compound by long gradient-based HPLC-RA analysis; format: physicochemical
[5] = Retention time of the compound by C18 advantage armor column based LC-MS analysis; format: physicochemical
[6] = Retention time of the compound by symmetry C18 column based LC-MS analysis; format: physicochemical
[7] = Activity at CYP4F in human liver microsomes assessed as metabolite formation after 15 mins measured per mg protein by Eadie-Hofstee plot analysis; format: ADME; conditions: 0.25 h
Cytochrome P450 1A2 = Cytochrome P450 1A2 (Homo sapiens, UniProt P05177); assay: Activity at CYP1A2 in human liver microsomes isolated from donors assessed as metabolite formation after 24 mins by HPLC-RA analysis; format: ADME; conditions: 0.4 h
Cytochrome P450 2E1 = Cytochrome P450 2E1 (Homo sapiens, UniProt P05181); assay: Activity at CYP2E1 in human liver microsomes isolated from donors assessed as metabolite formation after 24 mins by HPLC-RA analysis; format: ADME; conditions: 0.4 h
Cytochrome P450 3A4 = Cytochrome P450 3A4 (Homo sapiens, UniProt P08684); assay: Activity at CYP3A4 in human liver microsomes isolated from donors assessed as metabolite formation after 24 mins by HPLC-RA analysis; format: ADME; conditions: 0.4 h
Cytochrome P450 3A5 [8] = target: T4, Cytochrome P450 3A5 (Homo sapiens, UniProt P20815); assay: Activity at CYP3A5 in human liver microsomes isolated from donors assessed as metabolite formation after 24 mins by HPLC-RA analysis; format: ADME; conditions: 0.4 h
[9] = Activity at CYP4A in human liver microsomes assessed as metabolite formation after 24 hrs by HPLC-RA analysis; format: ADME
Cytochrome P450 1B1 = Cytochrome P450 1B1 (Homo sapiens, UniProt Q16678); assay: Activity at human recombinant CYP1B1 expressed in baculovirus-infected BTI-TN-5B1-4 insect cell microsomes assessed as metabolite formation at 5 to 100 uM after 30 mins by HPLC-RA analysis; format: ADME; conditions: bti-tn-5b1-4, 0.5 h
Cytochrome P450 2A6 [10] = target: T1, Cytochrome P450 2A6; assay: Activity at human recombinant CYP2A6 expressed in baculovirus-infected BTI-TN-5B1-4 insect cell microsomes assessed as metabolite formation at 5 to 100 uM after 30 mins by HPLC-RA analysis; format: ADME; conditions: bti-tn-5b1-4, 0.5 h
Cytochrome P450 2B6 [11] = target: T2, Cytochrome P450 2B6; assay: Activity at human recombinant CYP2B6 expressed in baculovirus-infected BTI-TN-5B1-4 insect cell microsomes assessed as metabolite formation at 5 to 100 uM after 30 mins by HPLC-RA analysis; format: ADME; conditions: bti-tn-5b1-4, 0.5 h
Cytochrome P450 2C8 = Cytochrome P450 2C8 (Homo sapiens, UniProt P10632); assay: Activity at human recombinant CYP2C8 expressed in baculovirus-infected BTI-TN-5B1-4 insect cell microsomes assessed as metabolite formation at 5 to 100 uM after 30 mins by HPLC-RA analysis; format: ADME; conditions: bti-tn-5b1-4, 0.5 h
Cytochrome P450 2C19 [12] = target: T3, Cytochrome P450 2C19; assay: Activity at human recombinant CYP2C19 expressed in baculovirus-infected BTI-TN-5B1-4 insect cell microsomes assessed as metabolite formation at 5 to 100 uM after 30 mins by HPLC-RA analysis; format: ADME; conditions: bti-tn-5b1-4, 0.5 h
Cytochrome P450 2J2 = Cytochrome P450 2J2 (Homo sapiens, UniProt P51589); assay: Activity at human recombinant CYP2J2 expressed in baculovirus-infected BTI-TN-5B1-4 insect cell microsomes assessed as metabolite formation at 5 to 100 uM after 30 mins by HPLC-RA analysis; format: ADME; conditions: bti-tn-5b1-4, 0.5 h
Cytochrome P450 3A5 [13] = target: T4, Cytochrome P450 3A5; assay: Activity at human recombinant CYP3A5 expressed in baculovirus-infected BTI-TN-5B1-4 insect cell microsomes assessed as metabolite formation at 5 to 100 uM after 30 mins by HPLC-RA analysis; format: ADME; conditions: bti-tn-5b1-4, 0.5 h
Liver microsome [14] = assay: Drug metabolism in human liver microsomes assessed as metabolite M12 (2-amino-2-(4-(8-hydroxyoctyl)phenethyl)propane-1,3-diol) formation at 20 uM after 30 mins by HPLC-RA analysis in presence of NADPH; format: ADME; conditions: 0.5 h
Aromatase = Aromatase (Homo sapiens, UniProt P11511); assay: Activity at human recombinant CYP19 expressed in baculovirus-infected BTI-TN-5B1-4 insect cell microsomes assessed as metabolite formation at 5 to 100 uM after 30 mins by HPLC-RA analysis; format: ADME; conditions: bti-tn-5b1-4, 0.5 h
Cytochrome P450 4F2 = target: T5, Cytochrome P450 4F2 (Homo sapiens, UniProt P78329); assay: Activity at human recombinant CYP4F2 expressed in baculovirus-infected BTI-TN-5B1-4 insect cell microsomes assessed as intrinsic clearance for metabolite formation after 15 mins measured per nmol of P450 by Eadie-Hofstee plot analysis; format: ADME; conditions: bti-tn-5b1-4, 0.25 h
T5 sequence (P78329 whole entry): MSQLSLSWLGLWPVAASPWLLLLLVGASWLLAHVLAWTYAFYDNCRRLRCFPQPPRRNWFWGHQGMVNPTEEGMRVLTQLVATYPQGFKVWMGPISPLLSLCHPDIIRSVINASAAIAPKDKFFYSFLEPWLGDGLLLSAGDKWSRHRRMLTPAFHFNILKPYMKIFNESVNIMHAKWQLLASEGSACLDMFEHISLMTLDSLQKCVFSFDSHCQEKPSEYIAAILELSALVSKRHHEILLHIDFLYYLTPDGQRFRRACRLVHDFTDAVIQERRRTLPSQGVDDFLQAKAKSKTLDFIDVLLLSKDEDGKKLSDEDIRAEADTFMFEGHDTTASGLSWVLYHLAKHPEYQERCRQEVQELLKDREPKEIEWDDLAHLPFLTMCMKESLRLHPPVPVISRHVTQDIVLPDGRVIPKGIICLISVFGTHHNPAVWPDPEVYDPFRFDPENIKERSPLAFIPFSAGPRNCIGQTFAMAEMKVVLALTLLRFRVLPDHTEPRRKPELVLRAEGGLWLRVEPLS

Liver microsome [15] = assay: Drug metabolism in human liver microsomes assessed as total metabolite formation at 1 uM after 20 mins by HPLC-RA analysis in presence of 10 uM CYP3A4 inhibitor ketoconazole; format: ADME
Liver microsome [16] = assay: Drug metabolism in human liver microsomes assessed as total metabolite formation at 1 to 50 uM after 20 mins by HPLC-RA analysis in presence of mechanism-based CYP1A2 inhibitor furafylline and NADPH; format: ADME
Liver microsome [17] = assay: Drug metabolism in human liver microsomes assessed as total metabolite formation at 1 to 50 uM after 20 mins by HPLC-RA analysis in presence of CYP2C8 inhibitor paclitaxel; format: ADME
Liver microsome [18] = assay: Drug metabolism in human liver microsomes assessed as total metabolite formation at 1 to 50 uM after 20 mins by HPLC-RA analysis in presence of CYP2D6 inhibitor quinidine; format: ADME
Liver microsome [19] = assay: Drug metabolism in human liver microsomes assessed as metabolite formation at 50 uM treated 15 mins after antibody addition measured after 20 mins by HPLC-RA analysis in presence of CYP2E1-specific monoclonal antibody; format: ADME

T2 sequence (P20813 whole entry): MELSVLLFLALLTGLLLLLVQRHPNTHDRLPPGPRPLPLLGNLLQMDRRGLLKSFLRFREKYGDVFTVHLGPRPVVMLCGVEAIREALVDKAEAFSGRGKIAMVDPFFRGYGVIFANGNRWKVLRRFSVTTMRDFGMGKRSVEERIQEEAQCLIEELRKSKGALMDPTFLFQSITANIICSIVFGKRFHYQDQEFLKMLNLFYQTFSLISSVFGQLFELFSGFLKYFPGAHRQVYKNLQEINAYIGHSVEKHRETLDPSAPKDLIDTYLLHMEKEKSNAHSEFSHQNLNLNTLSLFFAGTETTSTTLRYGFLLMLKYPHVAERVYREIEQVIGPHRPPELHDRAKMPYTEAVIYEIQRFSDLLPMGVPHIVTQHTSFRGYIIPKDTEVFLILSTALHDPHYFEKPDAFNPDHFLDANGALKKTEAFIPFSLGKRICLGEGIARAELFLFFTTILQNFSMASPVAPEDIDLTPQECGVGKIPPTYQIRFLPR
T4 sequence (P20815 whole entry): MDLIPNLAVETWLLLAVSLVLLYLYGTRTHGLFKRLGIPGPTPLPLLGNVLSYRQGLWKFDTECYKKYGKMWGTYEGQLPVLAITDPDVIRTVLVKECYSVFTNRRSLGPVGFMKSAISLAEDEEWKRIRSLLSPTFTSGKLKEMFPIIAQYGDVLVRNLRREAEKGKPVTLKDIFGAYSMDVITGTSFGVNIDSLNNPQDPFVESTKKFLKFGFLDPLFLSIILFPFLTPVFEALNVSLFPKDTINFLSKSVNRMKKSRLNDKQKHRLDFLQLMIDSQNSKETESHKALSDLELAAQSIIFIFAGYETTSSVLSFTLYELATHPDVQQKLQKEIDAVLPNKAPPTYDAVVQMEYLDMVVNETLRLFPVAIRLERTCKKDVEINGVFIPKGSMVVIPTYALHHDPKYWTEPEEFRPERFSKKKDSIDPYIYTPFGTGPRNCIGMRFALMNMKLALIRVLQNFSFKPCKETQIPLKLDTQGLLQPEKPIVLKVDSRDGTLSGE
T1 sequence (P11509 whole entry): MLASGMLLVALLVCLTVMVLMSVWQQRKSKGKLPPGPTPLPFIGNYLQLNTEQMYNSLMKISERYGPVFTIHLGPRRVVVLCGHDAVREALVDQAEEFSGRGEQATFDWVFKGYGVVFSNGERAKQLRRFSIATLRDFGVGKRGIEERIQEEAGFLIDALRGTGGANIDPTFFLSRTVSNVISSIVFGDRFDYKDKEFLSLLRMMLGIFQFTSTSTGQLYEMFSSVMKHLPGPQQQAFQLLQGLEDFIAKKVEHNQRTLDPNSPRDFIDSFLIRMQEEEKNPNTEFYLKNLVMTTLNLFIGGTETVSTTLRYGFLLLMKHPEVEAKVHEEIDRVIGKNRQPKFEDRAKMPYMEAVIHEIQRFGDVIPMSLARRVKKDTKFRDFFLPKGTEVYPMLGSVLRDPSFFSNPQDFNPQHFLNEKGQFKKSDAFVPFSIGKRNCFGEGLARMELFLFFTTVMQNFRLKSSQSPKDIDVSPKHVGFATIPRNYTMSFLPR
T3 sequence (P33261 whole entry): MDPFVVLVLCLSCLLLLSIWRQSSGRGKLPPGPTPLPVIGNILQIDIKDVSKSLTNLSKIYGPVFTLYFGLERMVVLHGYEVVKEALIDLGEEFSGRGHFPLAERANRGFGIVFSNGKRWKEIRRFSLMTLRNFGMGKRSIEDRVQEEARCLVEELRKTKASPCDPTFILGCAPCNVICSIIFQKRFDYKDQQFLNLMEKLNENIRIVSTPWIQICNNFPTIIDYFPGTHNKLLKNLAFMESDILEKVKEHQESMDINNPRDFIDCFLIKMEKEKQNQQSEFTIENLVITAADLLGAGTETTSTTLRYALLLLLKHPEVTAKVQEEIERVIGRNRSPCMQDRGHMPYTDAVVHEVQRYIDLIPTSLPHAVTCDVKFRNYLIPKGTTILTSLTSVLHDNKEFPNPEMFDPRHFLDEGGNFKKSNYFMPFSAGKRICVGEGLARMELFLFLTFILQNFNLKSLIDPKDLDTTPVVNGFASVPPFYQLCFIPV
Aromatase, sequence (P11511 whole entry): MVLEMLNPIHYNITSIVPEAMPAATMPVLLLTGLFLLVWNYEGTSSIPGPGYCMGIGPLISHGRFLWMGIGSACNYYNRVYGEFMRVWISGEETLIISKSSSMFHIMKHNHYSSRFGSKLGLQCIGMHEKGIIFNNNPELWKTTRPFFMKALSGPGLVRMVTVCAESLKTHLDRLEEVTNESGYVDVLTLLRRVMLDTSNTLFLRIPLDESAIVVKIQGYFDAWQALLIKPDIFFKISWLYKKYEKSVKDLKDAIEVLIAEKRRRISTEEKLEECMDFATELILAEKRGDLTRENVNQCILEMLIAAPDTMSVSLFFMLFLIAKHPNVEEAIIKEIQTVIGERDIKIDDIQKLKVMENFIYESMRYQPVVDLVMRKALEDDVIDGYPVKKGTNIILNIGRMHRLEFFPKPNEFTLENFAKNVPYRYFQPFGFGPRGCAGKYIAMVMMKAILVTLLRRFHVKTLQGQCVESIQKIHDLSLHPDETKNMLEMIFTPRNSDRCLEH
Cytochrome P450 2E1, sequence (P05181 whole entry): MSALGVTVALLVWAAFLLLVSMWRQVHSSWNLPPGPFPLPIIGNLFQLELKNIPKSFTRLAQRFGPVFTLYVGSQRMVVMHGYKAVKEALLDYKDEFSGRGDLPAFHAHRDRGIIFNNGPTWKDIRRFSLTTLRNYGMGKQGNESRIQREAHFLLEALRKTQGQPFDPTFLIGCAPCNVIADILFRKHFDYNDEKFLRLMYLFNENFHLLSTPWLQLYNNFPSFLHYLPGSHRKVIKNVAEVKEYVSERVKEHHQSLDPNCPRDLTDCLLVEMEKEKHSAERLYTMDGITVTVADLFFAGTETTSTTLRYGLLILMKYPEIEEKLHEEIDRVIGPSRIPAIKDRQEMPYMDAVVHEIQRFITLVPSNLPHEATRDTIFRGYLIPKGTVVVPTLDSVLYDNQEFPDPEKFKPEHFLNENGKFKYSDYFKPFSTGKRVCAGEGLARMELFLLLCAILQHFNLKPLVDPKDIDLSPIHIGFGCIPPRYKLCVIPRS
Cytochrome P450 3A4, sequence (P08684 whole entry): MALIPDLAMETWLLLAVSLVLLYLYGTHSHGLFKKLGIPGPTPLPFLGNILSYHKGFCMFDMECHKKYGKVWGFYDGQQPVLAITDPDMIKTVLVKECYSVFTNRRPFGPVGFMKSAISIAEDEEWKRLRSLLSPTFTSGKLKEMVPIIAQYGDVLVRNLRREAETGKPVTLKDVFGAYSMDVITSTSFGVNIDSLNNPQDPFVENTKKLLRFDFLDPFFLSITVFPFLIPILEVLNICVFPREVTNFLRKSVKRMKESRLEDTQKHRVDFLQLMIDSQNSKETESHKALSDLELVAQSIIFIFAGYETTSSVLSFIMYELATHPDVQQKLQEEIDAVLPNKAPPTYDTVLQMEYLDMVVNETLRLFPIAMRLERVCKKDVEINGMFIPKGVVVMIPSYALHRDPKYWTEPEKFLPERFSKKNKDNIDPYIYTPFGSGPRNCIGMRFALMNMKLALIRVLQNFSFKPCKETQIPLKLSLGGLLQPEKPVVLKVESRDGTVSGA
Cytochrome P450 2C8, sequence (P10632 whole entry): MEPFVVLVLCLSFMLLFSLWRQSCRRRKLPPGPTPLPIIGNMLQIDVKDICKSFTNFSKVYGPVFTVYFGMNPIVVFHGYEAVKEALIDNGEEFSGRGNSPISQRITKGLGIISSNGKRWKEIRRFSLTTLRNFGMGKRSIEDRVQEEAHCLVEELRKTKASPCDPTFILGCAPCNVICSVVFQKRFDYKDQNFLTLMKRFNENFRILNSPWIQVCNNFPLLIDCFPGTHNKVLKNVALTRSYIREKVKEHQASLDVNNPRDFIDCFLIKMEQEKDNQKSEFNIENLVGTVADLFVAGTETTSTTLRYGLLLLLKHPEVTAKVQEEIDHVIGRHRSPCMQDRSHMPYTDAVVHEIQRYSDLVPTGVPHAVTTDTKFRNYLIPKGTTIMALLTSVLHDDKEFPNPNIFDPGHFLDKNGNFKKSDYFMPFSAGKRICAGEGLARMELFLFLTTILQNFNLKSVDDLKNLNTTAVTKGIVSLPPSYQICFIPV
Cytochrome P450 1A2, sequence (P05177 whole entry): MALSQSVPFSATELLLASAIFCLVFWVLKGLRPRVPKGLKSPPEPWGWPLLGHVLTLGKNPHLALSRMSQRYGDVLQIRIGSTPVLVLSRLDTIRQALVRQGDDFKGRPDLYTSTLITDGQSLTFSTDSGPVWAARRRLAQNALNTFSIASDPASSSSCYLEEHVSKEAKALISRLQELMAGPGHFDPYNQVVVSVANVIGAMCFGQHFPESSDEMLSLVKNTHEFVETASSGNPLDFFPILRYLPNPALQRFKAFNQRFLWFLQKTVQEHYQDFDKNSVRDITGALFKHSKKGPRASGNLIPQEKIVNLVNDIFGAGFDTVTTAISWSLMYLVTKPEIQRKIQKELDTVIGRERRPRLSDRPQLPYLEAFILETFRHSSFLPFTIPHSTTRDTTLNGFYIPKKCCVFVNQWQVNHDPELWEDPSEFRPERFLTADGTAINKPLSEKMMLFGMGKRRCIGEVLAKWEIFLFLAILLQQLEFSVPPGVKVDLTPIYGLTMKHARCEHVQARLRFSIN
Cytochrome P450 2J2, sequence (P51589 whole entry): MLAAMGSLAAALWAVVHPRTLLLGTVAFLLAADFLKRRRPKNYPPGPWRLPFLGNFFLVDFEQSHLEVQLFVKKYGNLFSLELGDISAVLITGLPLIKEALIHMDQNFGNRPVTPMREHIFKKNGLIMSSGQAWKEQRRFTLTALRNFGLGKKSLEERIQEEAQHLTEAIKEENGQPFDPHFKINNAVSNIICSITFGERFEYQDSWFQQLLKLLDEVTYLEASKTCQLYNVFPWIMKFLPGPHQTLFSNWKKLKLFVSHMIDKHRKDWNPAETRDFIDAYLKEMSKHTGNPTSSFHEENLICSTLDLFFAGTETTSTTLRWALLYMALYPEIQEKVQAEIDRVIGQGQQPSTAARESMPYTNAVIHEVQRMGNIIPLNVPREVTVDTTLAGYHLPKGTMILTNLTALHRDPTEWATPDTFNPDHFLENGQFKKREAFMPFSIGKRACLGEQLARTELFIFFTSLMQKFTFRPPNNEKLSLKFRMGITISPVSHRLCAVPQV

## CCCCCCCCc1ccc(CC[14C](N)(CO)CO)cc1.Cl
Cytochrome P450 2A6 [1]
  Drug metabolism: metabolite_not_detected
Cytochrome P450 2B6 [2]
  Drug metabolism: metabolite_not_detected
Cytochrome P450 2C19 [3]
  Drug metabolism: metabolite_not_detected
[4]
  Retention_time: 41.9 min
[5]
  Retention_time: 42.7 min
[6]
  Retention_time: 42.4 min
[7]
  Vmax: 847 pmol/min
Cytochrome P450 1A2
  Drug metabolism: metabolite_not_detected
Cytochrome P450 2E1
  Drug metabolism: metabolite_not_detected
Cytochrome P450 3A4
  Drug metabolism: metabolite_not_detected
Cytochrome P450 3A5 [8]
  Drug metabolism: metabolite_not_detected
[9]
  Drug metabolism: metabolite_not_detected
Cytochrome P450 1B1
  Drug metabolism: metabolite_not_detected
Cytochrome P450 2A6 [10]
  Drug metabolism: metabolite_not_detected
Cytochrome P450 2B6 [11]
  Drug metabolism: metabolite_not_detected
Cytochrome P450 2C8
  Drug metabolism: metabolite_not_detected
Cytochrome P450 2C19 [12]
  Drug metabolism: metabolite_not_detected
Cytochrome P450 2J2
  Drug metabolism: metabolite_not_detected
Cytochrome P450 3A5 [13]
  Drug metabolism: metabolite_not_detected
Liver microsome [14]
  Drug metabolism: metabolite_detected
Aromatase
  Drug metabolism: metabolite_not_detected
Cytochrome P450 4F2
  CL: 23 µL/min
Liver microsome [15]
  Drug metabolism: metabolite_not_detected
Liver microsome [16]
  Drug metabolism: metabolite_detected
Liver microsome [17]
  Drug metabolism: metabolite_detected
Liver microsome [18]
  Drug metabolism: metabolite_detected
Liver microsome [19]
  Drug metabolism: metabolite_detected
